Results from paper PMC9071491, “Fragment screening and structural analyses highlight the ATP-assisted ligand binding for inhibitor discovery against type 1 methionyl-tRNA synthetase” (Nucleic Acids Research, 2022).
Read-outs that look alike come from different tables or passages of the source.

How the values were obtained:
SaMetRS [1] = biological target: T1, SaMetRS (Staphylococcus aureus, UniProt P67578); test: biochemical; assay type: binding
T1 construct: full-length SaMetRS (SaMetRS-FL) (residues 1–657) was expressed and purified in the same manner; made in house; host or cells: E. coli BL21 (DE3)
Method: Ligand binding usually stabilizes the protein during the thermal denaturation process, and a tighter binder causes a larger positive shift in the protein melting temperature (Tm) ([38]). The binding of ligands to SaMetRS was evaluated by the fluorescence-based thermal shift assay as described ([39]). Briefly, mixtures with a final volume of 20 μl that contained 4 μg of SaMetRS-FL, 4 × SYPRO orange fluorescence dye (Sigma-Aldrich) and different ligands (10 μM REP8839, 5 mM L-Met, 5 mM ATP, or 1 mM fragments) in TSA buffer (100 mM Tris pH 8.0, 150 mM NaCl) were prepared in 96-well plates. The mixtures were incubated at 25°C for 10 min and then heated from 25°C to 95°C at a rate of 1°C/min. The fluorescence intensity was recorded every 20 s by using a StepOnePlus Real-Time PCR instrument (Life Technologies). The melting curves, using the fluorescence signal as the ordinate and the temperature as the abscissa, were fitted by using StepOne™ software v2.3 to obtain the melting temperature (Tm) of the protein. Triplicate assays were performed, and the average Tm values were used. The thermal stabilization of SaMetRS that was caused by a ligand (a fragment, substrate or inhibitor) was termed ΔTm, and it was calculated by subtracting the Tm of SaMetRS without the ligand from the Tm of SaMetRS supplemented with the ligand as follows:
Fragment screening is a fast-growing strategy for designing drugs with novel scaffolds as well as for identifying new druggable sites ([51],[52]). A total of 1049 fragments or low molecular weight natural products were screened by using TSA to search for new binders to SaMetRS. Considering the potential beneficial effect of ATP on ligand binding to SaMetRS, a parallel experiment was carried out using SaMetRS, which was saturated with 5 mM ATP. Fragments were diluted to a final concentration of 1.0 mM. The Tm of apo or ATP-bound SaMetRS without adding fragments was used as a blank control, and REP8839 was used as a positive control. We considered fragments that could increase the Tm value of SaMetRS by more than 1.0°C (ΔTm > 1.0°C) as positive hits (Figure 4B).

SaMetRS [2] = biological target: T1, SaMetRS; test: pretransfer editing assay (malachite green); assay type: biochemical
Method: A pretransfer editing assay was employed to evaluate the enzymatic activity of MetRS and the inhibitory activity of fragments to this enzyme. MetRS uses ATP to misactivate the noncognate L-norleucine (L-Norleu) to produce norleucyl adenylate and pyrophosphate (PPi). Norleucyl adenylate was hydrolyzed in the active site through pretransfer editing, and PPi was hydrolyzed by pyrophosphatase (PPiase). The pretransfer editing activity of MetRS was evaluated by measuring phosphate ion (Pi) production using a malachite green assay ([40],[41]). The assays were performed in 80 μl reaction mixtures consisting of 160 nM SaMetRS-FL or SaMetRS-dC or HcMetRS-dN or HcMetRS-dN/C, 100 μM ATP, 20 mM L-Norleu and 50 μg/ml PPiase in reaction buffer (30 mM HEPES pH 7.5, 150 mM NaCl, 30 mM KCl, 40 mM MgCl2, 1 mM DTT) at room temperature ([42]). The pyrophosphates released from the pretransfer editing reaction were decomposed into phosphates by PPiase. Then, 20 μl of malachite green reagent (2.45 M sulfuric acid, 0.1% w/v malachite green, 1.5% w/v ammonium molybdate tetrahydrate, and 0.2% v/v Tween 20) was added to each reaction, and the absorbance at 620 nm was recorded using a Synergy H1 microplate reader.
To measure the inhibitory activity of compounds against SaMetRS, the reactions of an 80 μl mixture consisting of 160 nM SaMetRS-FL (or HcMetRS-dN), 100 μM ATP, 20 mM L-norleucine, 50 μg/ml PPiase and 1 mM fragment (or inhibitor at different concentrations) in reaction buffer were incubated at room temperature for 30 min. Then, 20 μl of malachite green reagent was added to each reaction, and absorbance at 620 nm was recorded. The absorbance at 620 nm of the reaction without adding a compound (fragment or inhibitor) was A1, the absorbance of the reaction without adding MetRS was A0, and the absorbance of the reaction with adding a compound (fragment or inhibitor) was AC. The inhibitory rates of compounds on enzyme activity = (A1 – AC)/(A1 – A0) ×100%. For compounds P80, P21 and REP8839, the inhibitory rates were measured at various concentrations, and the data were fitted in GraphPad Prism 8 using the ‘log[inhibitor] versus response’ equation to calculate the IC50 values.
The inhibitory rates of these fragments against SaMetRS were then tested by a pretransfer editing assay. In the assay, MetRS used ATP to misactivate noncognate L-norleucine (L-Norleu) to produce norleucyl adenylate and PPi. The norleucyl adenylate was then quickly hydrolyzed (or ‘edited’) by MetRS in a tRNA-independent manner ([53–55]). In addition, PPi is hydrolyzed by pyrophosphatase, and phosphate production reflects the activity of MetRS in L-Norleu misactivation and pretransfer editing.

SaMetRS [3] = biological target: T1, SaMetRS; test: isothermal titration calorimetry (ITC) assay; assay type: binding
Method: The affinities of ligands to SaMetRS were measured by using a MicroCal PEAQ-ITC microcalorimeter. […] The interval between two injections was 150 s. The disassociation constants (Kd) were determined by fitting the calorimetric data to a one-site binding model by using MicroCal PEAQ-ITC analysis software.

SaMetRS [4] = biological target: T1, SaMetRS; test: tRNA-dependent ATP consumption assay; assay type: biochemical
Method: (§1) The inhibitory activity of the compounds against the tRNA aminoacylation reaction of MetRS was evaluated by employing an ATP consumption assay ([43],[44]). In brief, 10 μl reactions consisting of 50 nM SaMetRS-FL or 100 nM HcMetRS-dN, 4 μM ATP, 500 μM L-Met, 0.5 mg/ml E. coli total tRNA in reaction buffer (30 mM HEPES pH 7.5, 150 mM NaCl, 30 mM KCl, 40 mM MgCl2, 0.1% BSA and 1 mM DTT) and compounds (P80, P21 and REP8839) at various concentrations were prepared and incubated at room temperature for 30 min. The reactions were then stopped by adding 10 μl of Kinase-Glo™ Reagent (Promega) and incubated at room temperature for 15 min. The luminescence, which reflects the concentration of the remaining ATP, was read on a Synergy H1 microplate reader (BioTek). The luminescence of the reaction without adding a compound was Lum1, the absorbance of the reaction without adding MetRS was Lum0, and the luminescence of the reaction with the added compound was LumC. The inhibitory rates of a compound on enzyme activity = (LumC – Lum1)/(Lum0 – Lum1) × 100%. The data were fitted in GraphPad Prism 8 with the ‘log[compound] versus response’ equation to calculate the IC50 values.

HcMetRS = biological target: T2, HcMetRS (Homo sapiens, UniProt P56192); test: tRNA-dependent ATP consumption assay; assay type: biochemical; details: HcMetRS-dN, even at high concentrations
T2 construct: a truncated HcMetRS without the N-terminal part (HcMetRS-dN) (residues 221–900); His6-SUMO (N, cleaved yes); made in house; host or cells: E. coli BL21 (DE3)
T2 sequence (P56192 221-900): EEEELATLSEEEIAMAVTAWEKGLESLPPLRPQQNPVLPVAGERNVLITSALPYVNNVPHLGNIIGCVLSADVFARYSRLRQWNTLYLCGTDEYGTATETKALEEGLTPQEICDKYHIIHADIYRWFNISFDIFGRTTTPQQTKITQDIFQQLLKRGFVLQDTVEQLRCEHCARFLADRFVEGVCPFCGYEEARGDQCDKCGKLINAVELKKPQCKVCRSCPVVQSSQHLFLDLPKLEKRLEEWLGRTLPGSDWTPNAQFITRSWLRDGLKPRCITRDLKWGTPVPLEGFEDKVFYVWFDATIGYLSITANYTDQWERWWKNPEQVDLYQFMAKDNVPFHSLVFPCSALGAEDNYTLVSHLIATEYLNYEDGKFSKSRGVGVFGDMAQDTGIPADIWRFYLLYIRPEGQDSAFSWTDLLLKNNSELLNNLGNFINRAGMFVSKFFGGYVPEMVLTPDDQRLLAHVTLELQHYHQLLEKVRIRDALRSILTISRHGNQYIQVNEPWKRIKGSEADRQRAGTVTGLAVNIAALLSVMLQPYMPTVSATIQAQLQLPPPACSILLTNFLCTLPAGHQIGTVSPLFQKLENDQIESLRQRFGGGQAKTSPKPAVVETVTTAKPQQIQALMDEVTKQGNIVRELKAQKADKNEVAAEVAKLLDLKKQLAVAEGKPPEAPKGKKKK
Method: as §1

[5] = read-out: ΔTm (°C) Tm(Frg)-Tm(apo)
[6] = read-out: ΔTm (°C) Tm(Frg+ATP)-Tm(ATP)

T1 sequence (P67578 whole entry, the tested form may be a part): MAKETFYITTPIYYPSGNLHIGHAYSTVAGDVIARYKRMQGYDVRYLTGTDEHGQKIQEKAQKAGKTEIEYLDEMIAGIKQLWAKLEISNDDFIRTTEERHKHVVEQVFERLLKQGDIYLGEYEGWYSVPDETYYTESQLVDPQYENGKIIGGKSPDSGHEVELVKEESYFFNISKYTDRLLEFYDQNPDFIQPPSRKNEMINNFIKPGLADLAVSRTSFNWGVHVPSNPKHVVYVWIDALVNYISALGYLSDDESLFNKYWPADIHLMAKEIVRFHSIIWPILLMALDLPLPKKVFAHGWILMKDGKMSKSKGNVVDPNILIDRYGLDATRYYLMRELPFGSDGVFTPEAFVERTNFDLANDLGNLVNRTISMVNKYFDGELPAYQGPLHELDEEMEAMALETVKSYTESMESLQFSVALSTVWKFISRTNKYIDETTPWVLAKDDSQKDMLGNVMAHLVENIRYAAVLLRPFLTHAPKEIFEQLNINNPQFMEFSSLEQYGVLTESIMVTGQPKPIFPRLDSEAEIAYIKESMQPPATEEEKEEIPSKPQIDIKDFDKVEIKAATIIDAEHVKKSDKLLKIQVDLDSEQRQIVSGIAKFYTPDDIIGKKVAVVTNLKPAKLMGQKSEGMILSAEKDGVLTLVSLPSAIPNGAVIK

SMILES	inhibition at 1000 µM (SaMetRS [2]; read-out: Inhibitory rate (%)) [%]	ΔTm at 1000 µM (SaMetRS [1]; [5]) [°C]	ΔTm at 1000 µM (SaMetRS [1]; [6]) [°C]	other results
C=C(F)c1sc(CNCCCNc2cc(O)c3ccccc3n2)c(C)c1Br [REP8839, reference compound]	–	–	–	ΔTm at 10 µM (SaMetRS [1]; [5]): 11.8 °C; ΔTm at 10 µM (SaMetRS [1]; [6]): 17.5 °C; inhibition at 10 µM (SaMetRS [2]; read-out: Inhibitory rate (%)): > 99%
N[C@@H]1C[C@@H]1c1ccccc1 [B54]	< 20	–	–	–
NC1Cc2ccccc2C1 [M2-80]	< 20	-0.1	2.5	–
NCCNc1cccc2ccccc12 [M2-293]	67.3 ± 1.1	–	1.3	–
O=[N+]([O-])c1ccc(O)c(O)c1 [A6]	< 20	1.1	1.2	–
CC(C)(C)Sc1cccnc1N [T2-15]	65.3 ± 3.1	2.5	2.5	Kd (SaMetRS [3]; SaMetRS apo, without ATP, 25°C, read-out: Kd, fragment to SaMetRS alone): 78.7 ± 7.1 µM; Kd (SaMetRS [3]; SaMetRS preincubated with 5 mM ATP, 25°C, read-out: Kd, fragment to SaMetRS saturated with ATP): 54.6 ± 2.6 µM
CNC(=O)c1ccc2c(c1)nc(-c1ccc(Br)c(O)c1)n2C(CNC(=O)OCc1ccccc1)c1ccc(OC)c(OC)c1 (centres unmarked) [P21]	–	–	–	IC50 (SaMetRS [4]; 50 nM SaMetRS-FL, 4 μM ATP, 500 μM L-Met, read-out: IC50, ATP consumption assay): 3.11 ± 0.48 µM; inhibition of HcMetRS (HcMetRS): did not significantly inhibit; IC50 (SaMetRS [2]): 0.428 ± 0.053 µM
O=[N+]([O-])c1ccc2[nH]ncc2c1 [B128]	30.4 ± 1.9	1.3	2.1	–
Nc1nc2ccccc2[nH]1 [M1-68]	< 20	0.1	1.3	–
Nc1ncnc2c1ncn2[C@@H]1O[C@H](COP(=O)(O)OP(=O)(O)OP(=O)(O)O)[C@@H](O)[C@H]1O [ATP]	–	–	–	fold more potent Kd of ATP with M3-88 premixed versus apo protein (SaMetRS [3]; SaMetRS premixed with M3-88 vs apo): approximately 4 fold; Kd (SaMetRS [3]; apo protein, 25°C, read-out: Kd, ATP to SaMetRS): 52 ± 6.7 µM; Kd (SaMetRS [3]; read-out: Kd, ATP to SaMetRS saturated with M3-88, SaMetRS preincubated with 5 mM M3-88, 25°C): 14.1 ± 0.7 µM
NCc1c[nH]c2ccccc12 [B63]	38.2 ± 3.5	0.8	1.7	–
CNC(=O)c1ccc2c(c1)nc(-c1ccc(Br)c(O)c1)n2C(CNC(=O)COc1ccccc1C(C)(C)C)c1ccc(OC)c(OC)c1 (centres unmarked) [P80]	–	–	–	IC50 (SaMetRS [4]): 0.223 ± 0.0123 µM; inhibition of HcMetRS (HcMetRS): did not significantly inhibit; IC50 (SaMetRS [2]): 0.0946 ± 0.0067 µM
Clc1cn2ccsc2n1 [M3-146]	< 20	-0.1	1.8	–
